A short description of the data set: Actual dose of vitamin on inkjet-printed areas, immersed in water, by UV/Vis absorbance. The format is physicochemical. Conditions: for Vitamin B3 dose, measured: 262 nm. The protocol: Two different ink solutions were used to print the vitamins onto the substrates. […] The solutions were filtered with 0.2 μm polypropylene membrane filter (Whatman, GE Healthcare, Piscataway, N.J., USA) before printing. Inkjet printing was performed with a […] printer (Fujifilm […] Clara, Calif., USA). In the printer, a MEMS-based cartridge-styled printhead with 16 nozzles linearly spaced at 254 μm that produce a nominal drop size of […] was used. Printing was performed in ambient conditions (relative humidity 45.5±5%, 21±1° C.) with a single nozzle using firing voltage of 35 V. The cartridge temperature was 30° C., and the drops were deposited at a drop spacing of 10 μm, 20 μm and 30 μm. The vitamins were printed in squares of 1 cm×1 cm on normal copy paper (n=6) and on multilayer curtain coated paper (n=1). […] Each printed area was immersed into predetermined amount of water and vigorously shaken. […] The calibration curves were done in water, as well.

Each structure is given as a SMILES string.

On to `O=C(O)c1cccnc1` [Vitamin B3, niacin], for which the “Vitamin B3 dose, measured” value runs as follows: (drop spacing 10, 4 h incubation in water, 1 cm x 1 cm printed area, theoretical 0.501 mg) 0.7594 mg; (drop spacing 10, 24 h incubation in water, theoretical 0.501 mg) 0.7323 mg; (drop spacing 20, 4 h incubation in water, 1 cm x 1 cm printed area, theoretical 0.125 mg) 0.2213 mg; (drop spacing 20, 24 h incubation in water, theoretical 0.125 mg) 0.2142 mg; (drop spacing 30, 4 h incubation in water, 1 cm x 1 cm printed area, theoretical 0.056 mg) 0.0717 mg; (drop spacing 30, 24 h incubation in water, theoretical 0.056 mg) 0.0687 mg.

Consider `Cc1cc2nc3c(=O)[nH]c(=O)nc-3n(C[C@H](O)[C@H](O)[C@H](O)COP(=O)(O)O)c2cc1C` [Vitamin B2, riboflavin sodium phosphate], for which the “Vitamin B2 dose, measured” value runs as follows: (drop spacing 10, 4 h incubation in water, 267 nm, theoretical 0.32 mg) 0.6255 mg; (drop spacing 10, 4 h incubation in water, 373 nm, theoretical 0.32 mg) 0.6459 mg; (drop spacing 10, second set of rows (no time heading printed), 267 nm, theoretical 0.32 mg) 0.5847 mg; (drop spacing 10, second set of rows (no time heading printed), 373 nm, theoretical 0.32 mg) 0.6141 mg; (drop spacing 20, 4 h incubation in water, 267 nm, theoretical 0.08 mg) 0.1337 mg; (drop spacing 20, 4 h incubation in water, 373 nm, theoretical 0.08 mg) 0.1403 mg. For the same molecule, the “Vitamin B2 dose, measured” value is listed as 0.1199 mg (drop spacing 20, second set of rows (no time heading printed), 267 nm, theoretical 0.08 mg); 0.1276 mg (drop spacing 20, second set of rows (no time heading printed), 373 nm, theoretical 0.08 mg); 0.0623 mg (drop spacing 30, 4 h incubation in water, 267 nm, theoretical 0.035 mg); 0.0658 mg (drop spacing 30, 4 h incubation in water, 373 nm, theoretical 0.035 mg); 0.0521 mg (drop spacing 30, second set of rows (no time heading printed), 267 nm, theoretical 0.035 mg); 0.0560 mg (drop spacing 30, second set of rows (no time heading printed), 373 nm, theoretical 0.035 mg).
